# Patent EP4729513A1, “A-KETO ACID AMIDE OR SUBSTITUTED OXALIC ACID AMIDE ESTER COMPOUND AND COMPOSITION THEREOF” (Nanjing Chempion Biotechnology Co., Ltd., priority 2023, dated 2025)
# Biological target: T1, human TYR (Homo sapiens, UniProt P14679)
# T1 sequence (P14679 19-529): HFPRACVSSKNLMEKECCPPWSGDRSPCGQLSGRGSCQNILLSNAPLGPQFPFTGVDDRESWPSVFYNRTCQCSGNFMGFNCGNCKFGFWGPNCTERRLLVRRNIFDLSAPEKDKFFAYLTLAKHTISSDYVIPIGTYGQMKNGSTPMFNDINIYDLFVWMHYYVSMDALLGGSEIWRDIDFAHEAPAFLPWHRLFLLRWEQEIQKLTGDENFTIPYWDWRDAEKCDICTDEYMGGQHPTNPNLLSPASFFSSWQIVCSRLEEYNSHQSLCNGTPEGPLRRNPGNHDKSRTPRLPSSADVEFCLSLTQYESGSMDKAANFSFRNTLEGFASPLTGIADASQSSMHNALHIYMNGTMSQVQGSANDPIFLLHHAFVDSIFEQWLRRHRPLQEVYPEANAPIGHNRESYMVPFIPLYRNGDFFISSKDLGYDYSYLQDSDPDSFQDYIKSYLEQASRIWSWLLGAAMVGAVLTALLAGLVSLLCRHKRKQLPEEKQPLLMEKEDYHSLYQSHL
# Experiment: TYR inhibitory activity by modified MBTH (3-methyl-2-benzothiazolinone hydrazine) method
# Type: biochemical
# Details: compound concentration 2 µg/mL; levodopa oxidized by human TYR, MBTH chromogenic reagent, absorbance at 505 nm
# Description: A TYR inhibitory activity of a compound was assessed by a 3-methyl-2-benzothiazolinone hydrazine (MBTH) method modified with reference to the existing report (Journal of Biochemical and Biophysical Methods, 1994, 28 (3): 173-183). With MBTH as a chromogenic reagent, an inhibitory activity of a compound against human TYR was determined as follows: Levodopa was oxidized into L-dopaquinone by the human TYR. MBTH was then allowed to undergo a reaction with the L-dopaquinone to produce a colored product. The reaction was terminated, and the specific absorbance of the colored product at 505 nm was measured.
row,SMILES,inhibition at 2 µg/mL [%]
1,"O=C(Nc1nc(-c2ccc(O)cc2O)cs1)C(=O)C1CCCCC1 [2-cyclohexyl-N-(4-(2,4-dihydroxyphenyl)thiazol-2-yl)-2-oxoacetamide]",65
2,"O=C(Nc1nc(-c2ccc(O)cc2O)cs1)C(=O)C1CC1 [2-cyclopropyl-N-(4-(2,4-dihydroxyphenyl)thiazol-2-yl)-2-oxoacetamide]",75.3
3,"O=C(Nc1nc(-c2ccc(O)cc2O)cs1)C(=O)OC1CC1 [Cyclopropyl 2-((4-(2,4-dihydroxyphenyl)thiazol-2-yl)amino)-2-oxoacetate]",85.8
4,"COC(=O)C(=O)Nc1nc(-c2ccc(O)cc2O)cs1 [Methyl 2-((4-(2,4-dihydroxyphenyl)thiazol-2-yl)amino)-2-oxoacetate]",88.1
5,"O=C(Nc1nc(-c2ccc(O)cc2O)cs1)C(=O)N1CCCC1 [N-(4-(2,4-Dihydroxyphenyl)thiazol-2-yl)-2-oxo-2-(pyrrolidin-1-yl)oxalamide]",93.5
6,"O=C(Nc1nc(-c2ccc(O)cc2O)cs1)C(=O)N1CCOCC1 [N-(4-(2,4-dihydroxyphenyl)thiazol-2-yl)-2-morpholino-2-oxoacetamide]",86.1
7,"O=C(Nc1nc(-c2ccc(O)cc2O)cs1)C(=O)N1CCSCC1 [N-(4-(2,4-dihydroxyphenyl)thiazol-2-yl)-2-thiomorpholin-2-oxoacetamide]",76.5
8,"CC(C)C(=O)C(=O)Nc1nc(-c2ccc(O)cc2O)cs1 [N-(4-(2,4-dihydroxyphenyl)thiazol-2-yl)-3-methyl-2-oxobutanamide]",78.5
9,"CC(C)NC(=O)C(=O)Nc1nc(-c2ccc(O)cc2O)cs1 [N-(4-(2,4-dihydroxyphenyl)thiazol-2-yl)-N'-isopropyloxalamide]",96.7

# Results, then the compound that gave them:
row,inhibition at 2 µg/mL [%],SMILES
1,89.6,"CCOC(=O)C(=O)Nc1nc(-c2ccc(O)cc2O)cs1 [Ethyl 2-((4-(2,4-dihydroxyphenyl)thiazol-2-yl)amino)-2-oxoacetate]"
2,90,"CCC(=O)C(=O)Nc1nc(-c2ccc(O)cc2O)cs1 [N-(4-(2,4-dihydroxyphenyl)thiazol-2-yl)-2-oxobutanamide]"
3,92.6,"CC(=O)C(=O)Nc1nc(-c2ccc(O)cc2O)cs1 [N-(4-(2,4-dihydroxyphenyl)thiazol-2-yl)-2-oxopropanamide]"
4,89.2,"CCN(CC)C(=O)C(=O)Nc1nc(-c2ccc(O)cc2O)cs1 [N-(4-(2,4-dihydroxyphenyl)thiazol-2-yl)-N',N'-diethyloxalamide]"
5,90.7,"CN(C)C(=O)C(=O)Nc1nc(-c2ccc(O)cc2O)cs1 [N-(4-(2,4-dihydroxyphenyl)thiazol-2-yl)-N',N'-dimethyloxalamide]"
